Earlier results, collected in patent US6468944B1, “Method of preparing glyphosate herbicide formulations” (priority 1991, dated 2002).

Q: With O=C(O)CNCP(=O)(O)O [Glyphosate, N-phosphonomethylglycine] as the compound, how does the solubility in water read?
A: relatively insoluble in water
